Data taken from patent publication US7253149B2, “Compounds and methods for modulating cell-adhesion mediated drug resistance” (University of South Florida, priority 2000, dated 2007).
Like-named read-outs stand apart in the source and are kept apart here. Marks after values point to notes of the source that are not given here. Where no end group is shown, it is not given here. [ ]: non-standard residue; d: D form.

Tests used:
fibronectin = assay: cell-based or functional assay
K562 cells [1] = assay type: cell-based
8226/S = assay type: cell-based, human
U937 cells = assay: Microtiter adhesion assay, adhesion of U937 cells to fibronectin; assay type: cell-based; settings: 5 μg/ml to 80 μg/ml, FIG. 26
8226/S myeloma cells [2] = assay: MTT cytotoxicity assay, FN-adhered vs non-adhered 8226/S cells; assay type: cell-based, human; settings: for IC50: Homo sapiens
8226/S myeloma cells [3] = assay: Annexin V apoptotic analysis, FN-adhered vs non-adhered 8226/S cells; assay type: cell-based, human; settings: 50 uM melphalan, 24 hours
K562 cells [4] = assay: MTT cytotoxicity assay, FN adhered vs suspension K562 cells; assay type: cell-based
Description: Plastic 96-well Immunosorp plates (Nunc, Denmark) are coated with 50 μl (40 μg/ml) FN (Life Technologies) or BSA overnight. Cells are washed once and resuspended in serum-free RPMI 1640, then 2×10^4 (K562) cells are added to each FN coated well. 8×10^3 (K562) cells are added to BSA coated wells. Cells are incubated for 2 hours at 37° C., washed with serum free media, and put back into serum-containing media. Following 24 hours in a tissue culture incubator, drug or vehicle control is added to each well for 90 minutes, media is removed and replaced by drug-free media for 96 hours. In some experiments, the drug is allowed to remain in each well for 96 hours. 50 μl 3-[4,5-Dimethylthiazol-2-yl]-2,5-diphenyltetrazolium bromide;Thiazolyl blue (MTT dye) (Sigma) is added to each well for 4 hours, plates are centrifuged and each well aspirated. Dye is solubilized with 100 μl DMSO and plates are read at 540 nm on an automated microtiter plate reader. A blank well containing only medium and drug is also run as a control in all experiments. IC50 values are calculated by linear regression analysis of percent survival vs. drug concentration.
The MTT assay is used to detect differences in the drug sensitivity of FN adhered vs. suspension-cultured cells following a 90 minutes or 96 hours (continuous) exposure to either mitoxantrone or melphalan (L-phenylalanine mustard or LPAM). After a 96 hour period in a cell incubator, cell survival is determined by the ability of viable cells to reduce MTT dye to formazan. IC50 values are derived through linear regression of the log-linear dose-response plots for each cell line to each drug. Student's T-test is used to analyze differences in drug response using data collected from at least three different experiments. FIGS. 8A and 8B depict representative continuous exposure experiments using mitoxantrone and LPAM, respectively.

[5] = system: K562/pcDNA3.1 and K562/VLA-4 cells; assay: Annexin V apoptosis analysis of α4 and empty vector transfectants adhered to FN with blocking antibodies; assay type: cell-based; settings: for level of cytoprotection in comparison to drug treated suspension cells: 100 μM LPAM 90 minutes, 24 hours; for protection against melphalan-induced apoptosis: α5 blocking antibody prior to adhesion
[6] = target: VLA-5 (α5β1 integrin) (human) (UniProt P08648); assay: cell-based or functional assay
[7] = target: integrin α5 subunit (CDw49e) (human) (UniProt P08648); assay: flow cytometry (FACS) on 8226/S cells, FITC-conjugated secondary antibody
[8] = target: integrin α5 subunit (CDw49e) (human) (UniProt P08648); assay: flow cytometry (FACS) on 8226/LR5 cells, FITC-conjugated secondary antibody
[9] = target: integrin α5 subunit (CDw49e) (human) (UniProt P08648); assay: flow cytometry (FACS) on 8226/DOX6 cells, FITC-conjugated secondary antibody
K562 cells [10] = assay: Adhesion of K562 cells to FN in presence of AG957; assay type: cell-based; settings: concentrations of inhibitor used in cytotoxicity assays
Description: Cellular adhesion to FN is determined.
The BCR/ABL kinase is believed to be critical to the survival of CML cells through its effects on a number of signal transduction pathways. Inhibitors of this fusion protein show promise as apoptosis-inducing drugs in CML cells. BCR/ABL inhibition by relatively high doses of the tyrphostin AG957 can have negative effects on FN adhesion. At the concentrations of inhibitor used in cytotoxicity assays, the adhesion of K562 cells to FN is not affected by more than 20–40 percent.

[11] = system: BCR/ABL-associated tyrosine kinase activity; assay: Anti-phosphotyrosine immunoblotting of AG957 treated K562 cells; settings: 20 μM AG957, four hours
[12] = target: integrin β7 subunit (human) (UniProt P26010); assay: flow cytometry (FACS) on 8226/S cells, FITC-conjugated secondary antibody
UniProt P26010, sequence (P26010 20-798): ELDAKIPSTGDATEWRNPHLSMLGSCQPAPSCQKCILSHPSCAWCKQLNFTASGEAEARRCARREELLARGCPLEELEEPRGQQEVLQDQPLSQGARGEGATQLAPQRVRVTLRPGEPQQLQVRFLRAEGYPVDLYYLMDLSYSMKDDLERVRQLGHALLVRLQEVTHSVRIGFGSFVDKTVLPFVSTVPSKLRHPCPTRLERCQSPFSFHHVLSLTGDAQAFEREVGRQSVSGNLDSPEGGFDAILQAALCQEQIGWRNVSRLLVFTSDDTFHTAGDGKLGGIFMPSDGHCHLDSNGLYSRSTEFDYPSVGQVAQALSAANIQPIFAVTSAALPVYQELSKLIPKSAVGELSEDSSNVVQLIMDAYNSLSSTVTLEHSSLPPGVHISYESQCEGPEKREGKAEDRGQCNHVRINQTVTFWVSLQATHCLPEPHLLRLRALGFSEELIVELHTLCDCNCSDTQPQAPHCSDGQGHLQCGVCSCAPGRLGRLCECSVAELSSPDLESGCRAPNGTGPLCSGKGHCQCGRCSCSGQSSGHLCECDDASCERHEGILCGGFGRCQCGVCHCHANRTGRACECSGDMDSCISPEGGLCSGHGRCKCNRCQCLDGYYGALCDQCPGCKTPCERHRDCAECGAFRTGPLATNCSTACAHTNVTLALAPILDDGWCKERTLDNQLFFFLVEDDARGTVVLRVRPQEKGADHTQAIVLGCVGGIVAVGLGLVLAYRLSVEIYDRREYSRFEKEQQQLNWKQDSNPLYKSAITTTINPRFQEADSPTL

[13] = target: integrin β7 subunit (human) (UniProt P26010); assay: flow cytometry (FACS) on 8226/LR5 cells, FITC-conjugated secondary antibody
[14] = target: integrin β7 subunit (human) (UniProt P26010); assay: flow cytometry (FACS) on 8226/DOX6 cells, FITC-conjugated secondary antibody
[15] = target: integrin α4 subunit (CDw49d) (human) (UniProt P13612); assay: flow cytometry (FACS) on 8226/S cells, FITC-conjugated secondary antibody
[16] = target: integrin α4 subunit (CDw49d) (human) (UniProt P13612); assay: flow cytometry (FACS) on 8226/LR5 cells, FITC-conjugated secondary antibody
[17] = target: integrin α4 subunit (CDw49d) (human) (UniProt P13612); assay: flow cytometry (FACS) on 8226/DOX6 cells, FITC-conjugated secondary antibody

With “VLA-4 (α4β1 integrin, Very Late Activation Antigen 4) (from UniProt P13612 34-1032; P05556 21-798)” the level of cytoprotection against melphalan-induced apoptosis in comparison to drug treated suspension cells (Annexin V, flow cytometry) (fibronectin) was 20.6 percent.
In the case of `CC[C@]1(O)C[C@H]2CN(CCc3c([nH]c4ccccc34)[C@@](C(=O)OC)(c3cc4c(cc3OC)N(C=O)[C@H]3[C@@](O)(C(=O)OC)[C@H](OC(C)=O)[C@]5(CC)C=CCN6CC[C@]43[C@@H]65)C2)C1` [VCR, vincristine], the “FN-mediated protection against the drug” value (K562 cells [1]; continuous exposure) is reported as “not significant”.
`COc1cccc2c1C(=O)c1c(O)c3c(c(O)c1C2=O)C[C@@](O)(C(=O)CO)C[C@@H]3O[C@H]1C[C@H](N)[C@H](O)[C@H](C)O1` [doxorubicin, Doxorubicin] was tested, and the “effect of acute exposure on cell surface integrin expression” value (8226/S; wide range of concentrations, 1–48 hours) was “no immediate effects”.
In the case of “kmviywkag ([dK][dM][dV][dI][dY][dW][dK][dA]G) [RZ-3, D-amino acid peptide Lys-Met-Val-Ile-Tyr-Trp-Lys-Ala-Gly, each amino acid a D-amino acid]”, the “effect on adhesion of U937 cells to FN” value (U937 cells) is reported as “effective in preventing FN adhesion”.
With `N[C@@H](Cc1ccc(N(CCCl)CCCl)cc1)C(=O)O` [LPAM, L-phenylalanine nitrogen mustard] the IC50 (8226/S myeloma cells [2]; read-out: mean IC50 value for FN-adhered cells) was 48 µM, the IC50 (8226/S myeloma cells [2]; read-out: mean IC50 value for cells grown on BSA) was 30 µM and the “mean difference FN-adhered vs BSA” value (8226/S myeloma cells [2]; n=3) was 1.7. For the same molecule, the “percentage of apoptotic cells, FN-adhered” value (8226/S myeloma cells [3]) was 16.53%, the “percentage of apoptotic cells, non-adhered” value (8226/S myeloma cells [3]) was 21.5% and the IC50 (K562 cells [4]; Homo sapiens, K562, 1.5 h, 90 min. exposure, FN adhered, read-out: Fibronectin mean IC50) was 190 µM. The IC50 (K562 cells [4]; Homo sapiens, K562, 1.5 h, 90 min. exposure, read-out: Suspension mean IC50) was 29.3 µM, the IC50 (K562 cells [4]; Homo sapiens, K562, 1.5 h, 90 minutes exposure, text b188, read-out: mean IC50 suspension (printed without exponent and unit)) was 29.3 µM and the IC50 (K562 cells [4]; Homo sapiens, K562, continuous (96 hours) exposure, FN adhered, read-out: Fibronectin mean IC50) was 57.3 µM. The IC50 (K562 cells [4]; Homo sapiens, K562, continuous (96 hours) exposure, read-out: Suspension mean IC50) was 25.5 µM, the “Fold resistance FN adhered vs suspension” value (K562 cells [4]; continuous exposure) was 2.25 fold and the “FN: mean death” value (K562 cells [1]; 100 μM, 1 hr) was 11.0 ± 8.3. The “Suspension: mean death” value (K562 cells [1]; 100 μM, 1 hr) was 37.5 ± 24.0, the “% Control death” value (K562 cells [1]; 100 μM, 1 hr, FN vs suspension) was 29.3* % and the “FN: mean death” value (K562 cells [1]; 100 μM, cont. exp.) was 23.3 ± 6.4. The “Suspension: mean death” value (K562 cells [1]; 100 μM, cont. exp.) was 39.8 ± 3.2, the “% Control death” value (K562 cells [1]; 100 μM, cont. exp., FN vs suspension) was 58.5* % and the “level of cytoprotection in comparison to drug treated suspension cells” value ([5]; K562/VLA-4 adhering through both α4 and α5) was 30.0±1.5%. The “level of cytoprotection in comparison to drug treated suspension cells” value ([5]; K562/pcDNA3.1 adhered through α5 alone) was 29.9±5.3%, the “protection against melphalan-induced apoptosis” value ([5]; K562/VLA-4) was 20.6±1.9% and the “protection against melphalan-induced apoptosis” value ([5]; K562/pcDNA3.1) was 0±11.1%. For the same molecule, the “effect of acute exposure on cell surface integrin expression” value (8226/S) was “no immediate effects”.
With “monoclonal antibody P1D6 (anti-CDw49e, α5)” the level of cytoprotection against melphalan-induced apoptosis in comparison to drug treated suspension cells (Annexin V, flow cytometry) [6] was 0 percent, the mean fluorescence intensity [7] was 14.2 and the mean fluorescence intensity [8] was 11.9. It also gave a mean fluorescence intensity [9] of 7.32.
With `COC(=O)c1ccc(NCc2cc(O)ccc2O)cc1` [AG957] the “fold resistance of FN adhered cells over suspension cells” value (K562 cells [4]; AG957 for 96 hours) was 3.6, the IC50 (K562 cells [4]; AG957 for 96 hours, three independent experiments, read-out: mean IC50 FN adhered cells) was 12.9 µM and the IC50 (K562 cells [4]; AG957 for 96 hours, three independent experiments, read-out: mean IC50 suspension grown cells) was 3.6 µM. For the same molecule, the “effect on adhesion of K562 cells to FN” value (K562 cells [10]) was 20–40% and the “BCR/ABL associated tyrosine phosphorylation” value [11] was “completely abrogated”.
With `Nc1ccn([C@@H]2O[C@H](CO)[C@@H](O)[C@@H]2O)c(=O)n1` [Ara-C] the “% Control death” value (K562 cells [1]) was 54.9* %, the “FN: mean death” value (K562 cells [1]) was 6.2 ± 1.6 and the “Suspension: mean death” value (K562 cells [1]) was 11.3 ± 5.5.
monoclonal antibody FIB504 (anti-β7) gave a mean fluorescence intensity [12] of 5.72, a mean fluorescence intensity [13] of 40.2 and a mean fluorescence intensity [14] of 18.5.
“monoclonal antibody P4G9 (anti-CDw49d, α4)” showed a mean fluorescence intensity [15] of 10.4, a mean fluorescence intensity [16] of 46.5 and a mean fluorescence intensity [17] of 69.
In the case of `O=C1c2c(O)ccc(O)c2C(=O)c2c(NCCNCCO)ccc(NCCNCCO)c21` [mitoxantrone], the “Fold resistance FN adhered vs suspension” value (K562 cells [4]; 90 min. exposure) is reported as “approximately 3.7 fold” and the “Fold resistance FN adhered vs suspension” value (K562 cells [4]; continuous exposure) is reported as 6.8 fold.
In the case of “VLA-5 (α5β1 integrin) (from UniProt P08648 42-1049; P05556 21-798) (receptor)”, the level of cytoprotection against melphalan-induced apoptosis in comparison to drug treated suspension cells (Annexin V, flow cytometry) (fibronectin) is reported as 29.9 percent.
